We go through 14 compounds from patent US20130303533A1, “AZOLOPYRIDINE AND AZOLOPYRIMIDINE COMPOUNDS AND METHODS OF USE THEREOF” (AMBIT BIOSCIENCES CORPORATION, priority 2010, published 2013).

The target of one experiment is T1, TYK2 (Homo sapiens, UniProt P29597).
T1 construct: made in house; host or cells: T7 phage display or HEK-293 cells (alternatives)
As to the kind of experiment: Competition binding assay to determine binding constants (Kd), TYK2. The source says: (§1) Competition Binding Assay to Determine Binding Constants (Kd) of the Compounds Against JAK Kinases
(§2) Competition binding assays used herein were developed, validated and performed as described in Fabian et al., Nature Biotechnology 2005, 23, 329-336. Kinases were produced as fusions to T7 phage (See, Fabian et al. or WO04/015142) or alternatively, the kinases were expressed in HEK-293 cells and subsequently tagged with DNA for PCR detection (See, WO08/005,310). For the binding assays, streptavidin-coated magnetic beads were treated with biotinylated affinity ligands for 30 min at rt to generate affinity resins. The liganded beads were blocked with excess biotin and washed with blocking buffer (SeaBlock (Pierce), 1% BSA, 0.05% Tween 20, 1 mM DTT) to remove unbound ligand and to reduce non-specific binding. Binding reactions were assembled by combining kinase, liganded affinity beads, and test compounds in 1× binding buffer (20% SeaBlock, 0.17×PBS, 0.05% Tween 20, 6 mM DTT). Test compounds were prepared as 100× stocks in DMSO and rapidly diluted into the aqueous environment. DMSO was added to control assays lacking a test compound. Primary screen interactions were performed in polypropylene 384-well plates in a final volume of 34 μL, while Kd determinations were performed in polystyrene 96-well plates in a final volume of 135 μL. The assay plates were incubated at room temperature with shaking for 1 hour, long enough for binding reactions to reach equilibrium, and the affinity beads were washed extensively with wash buffer (1×PBS, 0.05% Tween 20) to remove unbound protein. The beads were then resuspended in elution buffer (1×PBS, 0.05% Tween 20, 2 μM non-biotinylated affinity ligand) and incubated at room temperature with shaking for 30 min. The kinase concentration in the eluates was measured by quantitative PCR. Each kinase was tested individually against each compound. Kds were determined using eleven serial threefold dilutions. A selectivity score, which is a quantitative measure of selectivity of a compound against a panel of enzymes, may be calculated for a compound by dividing the number of enzymes for which a compound meets a set criteria, (for example, a binding constant of 100 nM or less), by the total number of enzymes tested.

The target of the next experiment is T2, JAK2 (Homo sapiens, UniProt O60674).
T2 construct: made in house; host or cells: T7 phage display or HEK-293 cells (alternatives)
T2 sequence (O60674 whole entry): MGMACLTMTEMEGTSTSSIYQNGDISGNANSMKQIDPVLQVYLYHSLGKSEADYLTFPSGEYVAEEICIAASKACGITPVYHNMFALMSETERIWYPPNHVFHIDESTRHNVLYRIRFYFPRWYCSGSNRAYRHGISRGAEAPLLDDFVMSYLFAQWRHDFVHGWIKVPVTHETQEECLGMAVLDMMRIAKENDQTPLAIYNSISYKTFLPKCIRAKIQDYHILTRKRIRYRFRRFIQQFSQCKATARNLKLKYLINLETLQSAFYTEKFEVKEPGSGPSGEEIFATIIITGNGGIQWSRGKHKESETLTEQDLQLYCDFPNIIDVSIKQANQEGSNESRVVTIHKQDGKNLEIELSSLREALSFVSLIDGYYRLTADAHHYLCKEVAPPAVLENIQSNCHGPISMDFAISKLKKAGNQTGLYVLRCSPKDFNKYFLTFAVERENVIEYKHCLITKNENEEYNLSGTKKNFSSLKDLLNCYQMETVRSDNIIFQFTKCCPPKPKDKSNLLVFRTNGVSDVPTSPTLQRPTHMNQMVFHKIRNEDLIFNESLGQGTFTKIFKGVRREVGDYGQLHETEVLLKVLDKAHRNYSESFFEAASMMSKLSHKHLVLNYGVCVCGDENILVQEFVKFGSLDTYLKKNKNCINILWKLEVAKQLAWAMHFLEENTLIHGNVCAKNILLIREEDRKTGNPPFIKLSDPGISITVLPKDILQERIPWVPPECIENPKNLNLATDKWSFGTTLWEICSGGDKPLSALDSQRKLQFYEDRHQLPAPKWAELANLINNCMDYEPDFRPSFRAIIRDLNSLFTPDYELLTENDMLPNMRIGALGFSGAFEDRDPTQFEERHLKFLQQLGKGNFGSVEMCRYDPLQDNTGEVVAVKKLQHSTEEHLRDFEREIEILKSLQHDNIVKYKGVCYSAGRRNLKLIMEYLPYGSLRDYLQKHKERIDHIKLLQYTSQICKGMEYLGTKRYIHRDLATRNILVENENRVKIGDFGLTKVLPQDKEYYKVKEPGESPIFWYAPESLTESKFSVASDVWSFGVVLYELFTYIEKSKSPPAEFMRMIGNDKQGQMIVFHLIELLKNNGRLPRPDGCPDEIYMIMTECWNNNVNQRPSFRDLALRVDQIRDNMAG
Nature of the experiment: Competition binding assay to determine binding constants (Kd), JAK2.
Description: as §1, §2

The target of another experiment is T3, JAK3 (Homo sapiens, UniProt P52333).
T3 construct: made in house; host or cells: T7 phage display or HEK-293 cells (alternatives)
T3 sequence (P52333 1-1124): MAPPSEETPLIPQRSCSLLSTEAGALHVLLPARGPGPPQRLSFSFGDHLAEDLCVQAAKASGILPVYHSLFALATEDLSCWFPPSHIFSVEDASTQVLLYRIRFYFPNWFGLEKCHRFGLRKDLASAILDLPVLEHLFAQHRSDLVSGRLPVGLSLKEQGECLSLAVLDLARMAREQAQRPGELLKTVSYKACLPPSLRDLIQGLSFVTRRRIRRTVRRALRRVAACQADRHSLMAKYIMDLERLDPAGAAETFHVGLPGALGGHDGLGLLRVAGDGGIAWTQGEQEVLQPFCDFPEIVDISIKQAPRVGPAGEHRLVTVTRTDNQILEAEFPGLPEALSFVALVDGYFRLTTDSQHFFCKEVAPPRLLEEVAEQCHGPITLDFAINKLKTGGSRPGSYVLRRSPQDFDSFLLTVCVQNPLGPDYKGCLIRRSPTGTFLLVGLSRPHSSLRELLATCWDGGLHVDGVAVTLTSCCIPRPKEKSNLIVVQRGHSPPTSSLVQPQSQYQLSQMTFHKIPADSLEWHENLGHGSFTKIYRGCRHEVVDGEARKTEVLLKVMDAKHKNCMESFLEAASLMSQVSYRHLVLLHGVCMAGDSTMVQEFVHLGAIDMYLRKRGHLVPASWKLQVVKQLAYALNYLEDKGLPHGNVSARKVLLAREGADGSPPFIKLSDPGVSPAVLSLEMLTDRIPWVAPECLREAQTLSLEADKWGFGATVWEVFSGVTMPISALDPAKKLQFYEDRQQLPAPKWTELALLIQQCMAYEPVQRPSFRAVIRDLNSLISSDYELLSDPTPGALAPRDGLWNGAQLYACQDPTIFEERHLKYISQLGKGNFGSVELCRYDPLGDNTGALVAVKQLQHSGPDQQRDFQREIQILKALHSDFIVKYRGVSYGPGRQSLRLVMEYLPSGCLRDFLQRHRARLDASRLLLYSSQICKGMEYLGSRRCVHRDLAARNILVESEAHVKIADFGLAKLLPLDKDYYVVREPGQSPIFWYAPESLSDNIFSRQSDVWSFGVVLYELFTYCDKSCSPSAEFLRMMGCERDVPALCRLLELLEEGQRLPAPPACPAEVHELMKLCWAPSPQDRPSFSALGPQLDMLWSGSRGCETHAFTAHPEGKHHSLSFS
Nature of the experiment: Competition binding assay to determine binding constants (Kd), JAK3.
Description: as §1, §2

Experiment [1] relates to GM-CSFR/JAK2/STAT5 pathway. Nature of the experiment: CSTF-1 cell-based reporter assay. Particulars: Homo sapiens; csTF-1 cells, GM-CSF at 2 ng/mL, 4 hours, beta-lactamase reporter; read-out: Cell Assay: CS TF-1 reporter assay IC50. The protocol: CSTF-1 Cell-Based Reporter Assay
CSTF-1 cells are derived from the human erythroleukemia cell line that is growth dependent on GM-CSF and has an intact GM-CSFR/JAK2/STAT5 pathway. The cell line contains stably integrated beta-lactamase reporter gene under the control of the […] (irf 1) response element recognized by the activated transcription factor STAT5. csTF-1 cells (Invitrogen K1219) were washed with assay media (97% OPTIMEM/0.5% dialyzed FBS/0.1 mM NEAA/1 mM Na pyr/P/S) and seeded in the same media at 5×10^5 cell/mL in T150 flask. After 16 hour incubation, cells were seeded at 2×10^5 cell/well in 50 μl volume, into Costar, clear bottom, 96-well assay plates. Serial dilutions of compounds were added to the plates with final DMSO concentration at 0.5% and GM-CSF at 2 ng/mL and the plates were then incubated at 30° C. and 5% CO2 for 4 hours. The plates were brought to room temperature before adding Substrate Mixture according to manufacturer's protocol (Invitrogen, Catalog #K1085). The assay plates containing the substrate mixture were incubated in the dark at room temperature for 2 hours. Blue and green fluorescence was measured with excitation at 409 nm and emission at 460 nm (for blue) and excitation at 409 nm and emission at 530 nm (for green) using Spectra Max Gemini EM.

T1 sequence (P29597 whole entry): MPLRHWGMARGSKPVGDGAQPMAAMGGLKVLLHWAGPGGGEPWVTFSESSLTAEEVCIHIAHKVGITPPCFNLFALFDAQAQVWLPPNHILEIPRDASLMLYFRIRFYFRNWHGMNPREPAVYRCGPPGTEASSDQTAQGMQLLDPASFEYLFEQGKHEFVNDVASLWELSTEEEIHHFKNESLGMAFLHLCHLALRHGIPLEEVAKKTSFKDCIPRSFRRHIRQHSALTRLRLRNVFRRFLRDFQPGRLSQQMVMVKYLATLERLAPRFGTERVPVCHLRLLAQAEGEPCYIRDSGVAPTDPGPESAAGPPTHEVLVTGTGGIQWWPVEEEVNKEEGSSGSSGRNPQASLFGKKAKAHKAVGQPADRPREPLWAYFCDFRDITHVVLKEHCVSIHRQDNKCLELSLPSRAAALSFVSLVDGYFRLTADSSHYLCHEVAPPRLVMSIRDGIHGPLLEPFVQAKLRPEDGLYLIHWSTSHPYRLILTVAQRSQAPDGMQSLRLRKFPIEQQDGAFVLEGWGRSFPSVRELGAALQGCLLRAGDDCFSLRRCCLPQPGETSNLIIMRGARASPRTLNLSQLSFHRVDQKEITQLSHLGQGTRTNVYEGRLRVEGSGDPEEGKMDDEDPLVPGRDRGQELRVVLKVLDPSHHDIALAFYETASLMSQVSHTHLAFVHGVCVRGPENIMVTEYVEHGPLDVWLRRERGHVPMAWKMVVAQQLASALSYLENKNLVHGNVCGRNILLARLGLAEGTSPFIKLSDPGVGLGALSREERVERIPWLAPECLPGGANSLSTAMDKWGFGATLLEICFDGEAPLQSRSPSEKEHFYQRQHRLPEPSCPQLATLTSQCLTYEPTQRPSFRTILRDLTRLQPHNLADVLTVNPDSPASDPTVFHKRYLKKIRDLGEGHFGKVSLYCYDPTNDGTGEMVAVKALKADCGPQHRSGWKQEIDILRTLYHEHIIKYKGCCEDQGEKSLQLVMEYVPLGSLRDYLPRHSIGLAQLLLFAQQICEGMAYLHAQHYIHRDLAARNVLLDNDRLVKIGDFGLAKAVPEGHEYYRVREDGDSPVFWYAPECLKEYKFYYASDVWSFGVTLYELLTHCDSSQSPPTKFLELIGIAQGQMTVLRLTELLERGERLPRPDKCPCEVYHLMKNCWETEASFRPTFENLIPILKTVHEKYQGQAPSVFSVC

As to `Cc1cc(Nc2nc(S(=O)(=O)c3ccc(F)cc3)nc3c2cnn3C(C)(C)C)n[nH]1` [Example 25, 1-tert-butyl-6-(4-fluorophenylsulfonyl)-N-(5-methyl-1H-pyrazol-3-yl)-1H-pyrazolo[3,4-d]pyrimidin-4-amine], the results for the dissociation constant (Kd) at TYK2, on JAK2 and on JAK3 were at most 10 nM, 1 to 10 nM and over 100 nM, respectively. The IC50 in experiment [1] lay within 100 to 500 nM.

As for `Cn1ccc2c(Nc3cc[nH]n3)nc([S+]([O-])c3ccc(F)cc3)nc21` (racemic) [Example 5, (R,S)-2-(4-fluorophenylsulfinyl)-7-methyl-N-(1H-pyrazol-3-yl)-7H-pyrrolo[2,3-d]pyrimidin-4-amine], the Kd is at most 10 nM at TYK2, at most 1 nM on JAK2 and 10 to 100 nM on JAK3. Further, the IC50 in experiment [1] was at most 100 nM.

Consider `Cc1cc(Nc2nc(C(F)(F)c3ccc(F)cc3)nc3c2cnn3C)n[nH]1` [Example 26, 6-(difluoro(4-fluorophenyl)methyl)-1-methyl-N-(5-methyl-1H-pyrazol-3-yl)-1H-pyrazolo[3,4-d]pyrimidin-4-amine], for which the dissociation constant Kd on TYK2 was at most 10 nM; at JAK2, at most 1 nM; at JAK3, 10 to 100 nM. Moreover, the IC50 in experiment [1] lay in the range of 100 to 500 nM.

As to `Cc1cc(Nc2nc(S(=O)(=O)c3ccc(F)cc3)nc3c2ccn3CCO)n[nH]1` [Example 13, 2-(2-(4-fluorophenylsulfonyl)-4-(5-methyl-1H-pyrazol-3-ylamino)-7H-pyrrolo[2,3-d]pyrimidin-7-yl)ethanol], the figures for the dissociation constant (Kd) at TYK2, on JAK2 and on JAK3 were at most 10 nM, at most 1 nM and at most 10 nM, respectively. Moreover, the IC50 in experiment [1] was at most 100 nM.

Consider `Cn1cc2c(Nc3cc[nH]n3)nc(C(F)(F)c3ccc(F)cc3)nc2n1` [Example 21, 6-(difluoro(4-fluorophenyl)methyl)-2-methyl-N-(1H-pyrazol-3-yl)-2H-pyrazolo[3,4-d]pyrimidin-4-amine], for which the figures for the dissociation constant Kd at TYK2, at JAK2 and on JAK3 were at most 10 nM, at most 1 nM and 10 to 100 nM, respectively. Besides, the IC50 in experiment [1] lay within 100 to 500 nM.

With `Cc1cc(Nc2nc(C(F)(F)c3ccc(F)cc3)nc3[nH]ncc23)n[nH]1` [Example 30, 6-(difluoro(4-fluorophenyl)methyl)-N-(5-methyl-1H-pyrazol-3-yl)-1H-pyrazolo[3,4-d]pyrimidin-4-amine], the results for the dissociation constant (Kd) on TYK2, on JAK2 and on JAK3 were at most 10 nM, at most 1 nM and 10 to 100 nM, respectively. For the same compound, the concentration for half-maximal inhibition (IC50) in experiment [1] is at most 100 nM.

Regarding `Cc1cc(Nc2nc(S(=O)(=O)c3ccc(F)cc3)nc3c2ccn3CC(=O)N(C)C)n[nH]1` [Example 15], the dissociation constant (Kd) on TYK2 is at most 10 nM; at JAK2, at most 1 nM; on JAK3, at most 10 nM. The half-inhibitory concentration (IC50) in experiment [1] was 100 to 500 nM.

For `Cc1cc(Nc2nc(S(=O)(=O)c3ccc(F)cc3)nc3c2ccn3CCN2CCOCC2)n[nH]1` [Example 19, 2-(4-fluorophenylsulfonyl)-N-(5-methyl-1H-pyrazol-3-yl)-7-(2-morpholinoethyl)-7H-pyrrolo[2,3-d]pyrimidin-4-amine], the values for the dissociation constant (Kd) at TYK2, on JAK2 and at JAK3 were at most 10 nM, 1 to 10 nM and at most 10 nM, respectively. Further, in experiment [1], the IC50 was at most 100 nM.

For the compound `COc1nc2nc(C(F)(F)c3ccc(F)cc3)nc(Nc3cc(C)[nH]n3)c2s1` [Example 39, 5-(difluoro(4-fluorophenyl)methyl)-2-methoxy-N-(5-methyl-1H-pyrazol-3-yl)thiazolo[4,5-d]pyrimidin-7-amine], the Kd at TYK2 is at most 10 nM; at JAK2 it was 1 to 10 nM; at JAK3, 10 to 100 nM. The half-inhibitory concentration (IC50) in experiment [1] lay within 100 to 500 nM.

On to `CCn1ncc2c(Nc3cc(C)[nH]n3)nc(S(=O)(=O)c3ccc(F)cc3)nc21` [Example 24, 1-ethyl-6-(4-fluorophenylsulfonyl)-N-(5-methyl-1H-pyrazol-3-yl)-1H-pyrazolo[3,4-d]pyrimidin-4-amine], for which the dissociation constant (Kd) at TYK2 is at most 10 nM; at JAK2 it was at most 1 nM; on JAK3, 10 to 100 nM. Moreover, the IC50 in experiment [1] was at most 100 nM.

With `CNc1nc2nc(C(F)(F)c3ccc(F)cc3)nc(Nc3cc(C)[nH]n3)c2s1` [Example 42, 5-(difluoro(4-fluorophenyl)methyl)-N2-methyl-N7-(5-methyl-1H-pyrazol-3-yl)thiazolo[4,5-d]pyrimidine-2,7-diamine], the dissociation constant (Kd) at TYK2 is at most 10 nM; on JAK2, 1 to 10 nM; on JAK3, at most 10 nM. Besides, the IC50 in experiment [1] lay in the range of 100 to 500 nM.

As to `Cc1cc(Nc2nc(C(F)(F)c3ccc(F)cc3)nc3c2cnn3CCN2CCOCC2)n[nH]1` [Example 32, 6-(difluoro(4-fluorophenyl)methyl)-N-(5-methyl-1H-pyrazol-3-yl)-1-(2-morpholinoethyl)-1H-pyrazolo[3,4-d]pyrimidin-4-amine], the figures for the dissociation constant (Kd) on TYK2, on JAK2 and on JAK3 were at most 10 nM, 1 to 10 nM and 10 to 100 nM, respectively. Also, the IC50 in experiment [1] lay in the range of 100 to 500 nM.

With `CCn1ccc2c(Nc3cc(OC)[nH]n3)nc(S(=O)(=O)c3ccc(F)cc3)nc21` [Example 14, 7-ethyl-2-(4-fluorophenylsulfonyl)-N-(5-methoxy-1H-pyrazol-3-yl)-7H-pyrrolo[2,3-d]pyrimidin-4-amine], the Kd on TYK2 is at most 10 nM; at JAK2, at most 1 nM; on JAK3, at most 10 nM. Moreover, the IC50 in experiment [1] was at most 100 nM.

Take `CCn1ccc2c(Nc3cc[nH]n3)nc(S(=O)(=O)c3ccc(F)cc3)nc21` [Example 8, 7-ethyl-2-(4-fluorophenylsulfonyl)-N-(1H-pyrazol-3-yl)-7H-pyrrolo[2,3-d]pyrimidin-4-amine]: the Kd at TYK2 is at most 10 nM; at JAK2, at most 1 nM; at JAK3, at most 10 nM. Also, in experiment [1], the IC50 was at most 100 nM.

Usually Kd stands for the constant that tells how readily two partners part at equilibrium. Read a high Kd as weaker binding. For orientation: IC50 means the concentration that inhibits the measured activity by half.
